What was measured:
[1] = biological target: HLA-A*0201 (Homo sapiens, UniProt P04439, D140Y/D185E/D98H/E176V/E277Q/G131W/G231S/I119V/I121R/I166T/I218V/L300P/L318F/N151K/N90K/P208A/P217A/Q86G/Q94H/R138H/R169H/T345S); test: REVEAL MHC molecule binding assay (ProImmune); details: level of binding relative to pass/fail control binder designated 100%
[2] = biological target: HLA-A*0201 (Homo sapiens, UniProt P04439, /I218V/L300P/L318F/N151K/N90K/P208A/P217A/Q86G/Q94H/R138H/R169H/T345S); test: REVEAL MHC molecule binding assay (ProImmune); details: value of the unmodified old peptide listed beside the modified peptide ID
[3] = test system: autologous responder cells (monocyte-depleted PBMC) from HLA-A*0201-negative donors; test: Induction of pentamer positive CD8+ T cells by peptide-pulsed HLA-A*0201-transfected moDC (Example 8); type: cell-based, human
Protocol: MoDC transfected with HLA-A*0201 mRNA were harvested 18 hours after transfection and resuspended in 1-2 ml of serum-free DC-medium containing 50 μg/ml peptide, such as MART-1 or peptide #19. The cells were incubated at 37° C., 5% CO2 for 4 hours, then washed once in serum-free RPMI.
Stimulator and responder cells were seeded at a stimulator to responder (S:R) ratio of 1:10, with 3.0×10^6 responders per well in serum-free DC medium containing 10 ng/ml IL-7 (PeproTech EC Ltd.), 50 pg/ml IL-12 (PeproTech EC Ltd.), and PPD at 1 μg/ml.
On day 12 the responder cells were harvested and analyzed for the presence of pentamer positive cells. The cells were either sorted or restimulated.
Restimulation was done with autologous EBV-LCL transfected with HLA-A*0201 mRNA 12-24 hours prior to stimulation, harvested and resuspended in 1-2 ml of serum-free X-Vivo 20 (Cambrex) containing the same peptide as added on day 0 at 20 μg/ml, and incubated for 4 hours at 37° C., 5% CO2. Following incubation, the EBV-LCL were washed once in serum-free RPMI.
From day 12 of co-culture with stimulator cells, the responders were harvested, counted and analyzed for the presence of pentamer positive cells weekly. The responder cells were either restimulated, as described above, or the pentamer positive cells were sorted and expanded as described below.
Monocyte-derived dendritic cells (moDC) from HLA-A*0201-negative donors were transfected with HLA-A*0201 mRNA after maturation. 18-24 hours post-transfection the cells were pulsed with the peptides indicated in Table 2 for four hours, before co-culturing them with autologous responder cells (monocyte-depleted PBMC). On day 12 and day 19 and in some cases at day 26 of co-culture, the cells were harvested, stained with relevant peptide-MHC-pentamer and analyzed by flow cytometry. The percentage of pentamer positive cells was calculated by dividing the number of pentamer positive cells by the number of CD8+ cells. On day 12 and day 19, the cells were restimulated with autologous EBV-cells that were transfected with HLA-A*0201 mRNA and loaded for four hours with the relevant peptides indicated in Table 2.

SVDPRIANV [82] (homo sapiens) [Peptide 82, from MPO]
% Pass/fail control [1]: 295.4%
% Pass/fail (Old Peptide) [2]: 295.4%
Day 12 % pent+/CD8+ ([3]; day 12 of co-culture): 0.04%
Day 19 % pent+/CD8+ ([3]; day 19 of co-culture, after restimulation): 0.19%
Day 12 Donors ([3]; donors with positive response / donors tested, day 12): 1/2
Day 19 Donors ([3]; donors with positive response / donors tested, day 19): 1/2

— patent publication US20110142842A1, “POLYPEPTIDES” (Medinnova AS, priority 2007, published 2011)
